# Measurements from publication PMC5218480 (PLoS ONE, 2017).
# System: MV-4-11 cells
# Experiment: Gene expression microarray analysis (Affymetrix PrimeView) and GSEA
# Assay type: cell-based, human
# Parameters: RFU PODN (11730768_x_at) / Fold change /veh PODN (11730768_x_at) / RFU LINC00158 (11744669_a_at) / Fold change /veh LINC00158 (11744669_a_at) / RFU DUSP10 (11751237_a_at) / Fold change /veh DUSP10 (11751237_a_at) / RFU ID3 (11757404_x_at) / Fold change /veh ID3 (11757404_x_at) / RFU PLEKHG5 (11737974_s_at) / Fold change /veh PLEKHG5 (11737974_s_at) / RFU LRRC4B (11730491_at) / Fold change /veh LRRC4B (11730491_at) / RFU GIMAP4 (11747438_a_at) / Fold change /veh GIMAP4 (11747438_a_at) / RFU KRT8 (11758183_x_at) / Fold change /veh KRT8 (11758183_x_at) / RFU CNN1 (11734310_a_at) / Fold change /veh CNN1 (11734310_a_at) / RFU VPS37D (11726825_at) / Fold change /veh VPS37D (11726825_at) / RFU C10orf10 (11716522_x_at) / Fold change /veh C10orf10 (11716522_x_at) / RFU KIR2DL2 /// KIR2DL4 /// KIR2DL5A /// KIR2DL5B /// KIR2DS1 /// KIR2DS2 /// KIR2DS3 /// KIR2DS4 /// KIR3DL3 /// KIR3DL3 /// KIR3DS1 (11738374_at) / Fold change /veh KIR2DL2 /// KIR2DL4 /// KIR2DL5A /// KIR2DL5B /// KIR2DS1 /// KIR2DS2 /// KIR2DS3 /// KIR2DS4 /// KIR3DL3 /// KIR3DL3 /// KIR3DS1 (11738374_at) / RFU C1QL1 (11718748_at) / Fold change /veh C1QL1 (11718748_at) / RFU TMPRSS4 (11747572_a_at) / Fold change /veh TMPRSS4 (11747572_a_at) / RFU HAMP (11756126_x_at) / Fold change /veh HAMP (11756126_x_at) / RFU RNFT2 (11725882_a_at) / Fold change /veh RNFT2 (11725882_a_at) / RFU NR4A2 (11747474_a_at) / Fold change /veh NR4A2 (11747474_a_at) / RFU ABCC12 (11746883_a_at) / Fold change /veh ABCC12 (11746883_a_at) / RFU TMEM136 (11760407_x_at) / Fold change /veh TMEM136 (11760407_x_at) / RFU CLDN22 /// WWC2 (11732394_at) / Fold change /veh CLDN22 /// WWC2 (11732394_at) / RFU HLA-DPB1 (11760878_x_at) / Fold change /veh HLA-DPB1 (11760878_x_at) / RFU SPINT1 (11716480_a_at) / Fold change /veh SPINT1 (11716480_a_at) / RFU GAP43 (11754022_s_at) / Fold change /veh GAP43 (11754022_s_at) / RFU A4GNT (11735810_at) / Fold change /veh A4GNT (11735810_at) / RFU PRB3 (11715151_x_at) / Fold change /veh PRB3 (11715151_x_at) / RFU TUBB4B (11761932_at) / Fold change /veh TUBB4B (11761932_at) / RFU CAPN14 (11732068_a_at) / Fold change /veh CAPN14 (11732068_a_at) / RFU TMCC2 (11721928_a_at) / Fold change /veh TMCC2 (11721928_a_at) / RFU IRGQ (11745062_a_at) / Fold change /veh IRGQ (11745062_a_at) / RFU FAM174B (11720279_a_at) / Fold change /veh FAM174B (11720279_a_at) / RFU TMPRSS4 (11748680_a_at) / Fold change /veh TMPRSS4 (11748680_a_at) / RFU FAM212B (11763350_a_at) / Fold change /veh FAM212B (11763350_a_at) / RFU PLEKHG5 (11743358_a_at) / Fold change /veh PLEKHG5 (11743358_a_at) / RFU ZSCAN30 (11745921_a_at) / Fold change /veh ZSCAN30 (11745921_a_at) / RFU CMKLR1 (11741424_a_at) / Fold change /veh CMKLR1 (11741424_a_at) / RFU LOC101060620 /// MAPK8IP1 (11723275_at) / Fold change /veh LOC101060620 /// MAPK8IP1 (11723275_at) / RFU SPTSSB (11747773_x_at) / Fold change /veh SPTSSB (11747773_x_at) / RFU PRSS12 (11739890_at) / Fold change /veh PRSS12 (11739890_at) / RFU BIN1 (11741810_x_at) / Fold change /veh BIN1 (11741810_x_at) / RFU WNT11 (11732464_a_at) / Fold change /veh WNT11 (11732464_a_at) / RFU C10orf10 (11716521_a_at) / Fold change /veh C10orf10 (11716521_a_at) / RFU C5orf56 (11738089_at) / Fold change /veh C5orf56 (11738089_at) / RFU CYB561 (11721691_x_at) / Fold change /veh CYB561 (11721691_x_at) / RFU ANKRD19P (11752326_a_at) / Fold change /veh ANKRD19P (11752326_a_at) / RFU OR2T12 /// OR2T33 /// OR2T8 (11738714_s_at) / Fold change /veh OR2T12 /// OR2T33 /// OR2T8 (11738714_s_at) / RFU VCAN (11748164_a_at) / Fold change /veh VCAN (11748164_a_at) / RFU JSRP1 (11732532_at) / Fold change /veh JSRP1 (11732532_at) / RFU KRTAP10-11 (11738290_x_at) / Fold change /veh KRTAP10-11 (11738290_x_at) / RFU MYO3A (11730013_a_at) / Fold change /veh MYO3A (11730013_a_at) / RFU EBF3 (11725865_a_at) / Fold change /veh EBF3 (11725865_a_at) / RFU CAMK2N1 (11719241_x_at) / Fold change /veh CAMK2N1 (11719241_x_at) / RFU C5orf56 (11738088_a_at) / Fold change /veh C5orf56 (11738088_a_at) / RFU OLFML3 (11715873_a_at) / Fold change /veh OLFML3 (11715873_a_at) / RFU LOC100653217 /// NTM (11731650_a_at) / Fold change /veh LOC100653217 /// NTM (11731650_a_at) / RFU MAPK11 (11762145_a_at) / Fold change /veh MAPK11 (11762145_a_at) / RFU FIZ1 (11724087_x_at) / Fold change /veh FIZ1 (11724087_x_at) / RFU OASL (11726364_x_at) / Fold change /veh OASL (11726364_x_at) / RFU SOX15 (11748057_x_at) / Fold change /veh SOX15 (11748057_x_at) / RFU CD79A (11719716_a_at) / Fold change /veh CD79A (11719716_a_at) / RFU HIST1H1D (11736915_at) / Fold change /veh HIST1H1D (11736915_at) / RFU CASKIN2 (11723855_a_at) / Fold change /veh CASKIN2 (11723855_a_at) / RFU LOC730098 (11760151_x_at) / Fold change /veh LOC730098 (11760151_x_at) / RFU OR4N2 (11742367_at) / Fold change /veh OR4N2 (11742367_at) / RFU PRRT2 (11749266_a_at) / Fold change /veh PRRT2 (11749266_a_at) / RFU SNX32 (11753110_a_at) / Fold change /veh SNX32 (11753110_a_at) / RFU CDHR5 (11726645_a_at) / Fold change /veh CDHR5 (11726645_a_at) / RFU RCAN1 (11760418_a_at) / Fold change /veh RCAN1 (11760418_a_at) / RFU FAM167A (11723789_a_at) / Fold change /veh FAM167A (11723789_a_at) / RFU FAM26E (11764081_at) / Fold change /veh FAM26E (11764081_at) / RFU ISYNA1 (11749810_s_at) / Fold change /veh ISYNA1 (11749810_s_at) / RFU ACY1 (11761880_at) / Fold change /veh ACY1 (11761880_at) / RFU 11764098_at / Fold change /veh 11764098_at / RFU SAMD14 (11745864_x_at) / Fold change /veh SAMD14 (11745864_x_at) / RFU NPB (11741838_a_at) / Fold change /veh NPB (11741838_a_at) / RFU TMPRSS6 (11731388_a_at) / Fold change /veh TMPRSS6 (11731388_a_at) / RFU KRTAP10-2 (11738614_at) / Fold change /veh KRTAP10-2 (11738614_at) / RFU ARHGAP8 /// PRR5-ARHGAP8 (11727945_x_at) / Fold change /veh ARHGAP8 /// PRR5-ARHGAP8 (11727945_x_at) / RFU KRTAP5-7 /// NADSYN1 (11734609_at) / Fold change /veh KRTAP5-7 /// NADSYN1 (11734609_at) / RFU RASL12 (11751679_a_at) / Fold change /veh RASL12 (11751679_a_at) / RFU CDKN2B (11736163_a_at) / Fold change /veh CDKN2B (11736163_a_at) / RFU PRF1 (11729649_at) / Fold change /veh PRF1 (11729649_at) / RFU, ZNF638 /// ZNF638-IT1 / Fold change vs veh, ZNF638 /// ZNF638-IT1 / RFU, PANK3 / Fold change vs veh, PANK3 / RFU, SH3YL1 / Fold change vs veh, SH3YL1 / RFU, ZEB2 / Fold change vs veh, ZEB2 / RFU, NRIP1 / Fold change vs veh, NRIP1 / RFU, PTTG1IP / Fold change vs veh, PTTG1IP / RFU, CAPN2 / Fold change vs veh, CAPN2 / RFU, MED14 / Fold change vs veh, MED14 / RFU, SNORA58 / Fold change vs veh, SNORA58 / RFU, C1orf63 / Fold change vs veh, C1orf63 / RFU, LRRFIP1 / Fold change vs veh, LRRFIP1 / RFU, NDUFAF7 / Fold change vs veh, NDUFAF7 / RFU, SLC12A2 / Fold change vs veh, SLC12A2 / RFU, IBTK / Fold change vs veh, IBTK / RFU, ESF1 / Fold change vs veh, ESF1 / Fold change vs veh, TMEM50B / RFU, TAOK1 / Fold change vs veh, TAOK1 / RFU, ACBD3 / Fold change vs veh, ACBD3 / RFU, TMA16 / Fold change vs veh, TMA16 / RFU, RWDD3 / Fold change vs veh, RWDD3 / RFU, BCAT1 / Fold change vs veh, BCAT1 / RFU, EDEM3 / Fold change vs veh, EDEM3 / RFU, TMEM33 / Fold change vs veh, TMEM33 / RFU, WDR75 / Fold change vs veh, WDR75 / RFU, AHCTF1 / Fold change vs veh, AHCTF1 / RFU, TFRC / Fold change vs veh, TFRC / RFU, ZDHHC17 / Fold change vs veh, ZDHHC17 / RFU, NOM1 / Fold change vs veh, NOM1 / RFU, ARL8B / Fold change vs veh, ARL8B / RFU, ZBTB11 / Fold change vs veh, ZBTB11 / RFU, TAMM41 / Fold change vs veh, TAMM41 / RFU, KIAA1704 /// LOC100996395 / Fold change vs veh, KIAA1704 /// LOC100996395 / RFU, ING1 / Fold change vs veh, ING1 / RFU, TRMT61B / Fold change vs veh, TRMT61B / RFU, FUBP3 / Fold change vs veh, FUBP3 / RFU, TP53 / Fold change vs veh, TP53 / RFU, TNKS2 / Fold change vs veh, TNKS2 / RFU, ZFP14 / Fold change vs veh, ZFP14 / RFU, ACTR2 / Fold change vs veh, ACTR2 / RFU, PPP3R1 / Fold change vs veh, PPP3R1 / RFU, PIK3R1 / Fold change vs veh, PIK3R1 / RFU, HNRNPA1 / Fold change vs veh, HNRNPA1 / RFU, RNF170 / Fold change vs veh, RNF170 / RFU, ZNF28 / Fold change vs veh, ZNF28 / RFU, RNGTT / Fold change vs veh, RNGTT / RFU, OGT / Fold change vs veh, OGT / RFU, BRD1 / Fold change vs veh, BRD1 / RFU, MARS / Fold change vs veh, MARS / RFU, ZNF655 / Fold change vs veh, ZNF655 / RFU, FAHD1 / Fold change vs veh, FAHD1 / RFU, BDP1 / Fold change vs veh, BDP1 / RFU, LRRCC1 / Fold change vs veh, LRRCC1 / RFU, ARID1A / Fold change vs veh, ARID1A / RFU, ZNF146 / Fold change vs veh, ZNF146 / RFU, ZNF330 / Fold change vs veh, ZNF330 / RFU, GPN3 / Fold change vs veh, GPN3 / RFU, C9orf123 / Fold change vs veh, C9orf123 / RFU, N4BP2L2 / Fold change vs veh, N4BP2L2 / RFU, ARFIP1 / Fold change vs veh, ARFIP1 / RFU, FAM179B / Fold change vs veh, FAM179B / RFU, BCL10 / Fold change vs veh, BCL10 / RFU, UHRF1BP1L / Fold change vs veh, UHRF1BP1L / RFU, BET1 / Fold change vs veh, BET1 / RFU, CNOT2 / Fold change vs veh, CNOT2 / RFU, ZNF268 / Fold change vs veh, ZNF268 / Fold change vs veh, ZNF507 / RFU, DGCR2 / Fold change vs veh, DGCR2 / RFU, WDSUB1 / Fold change vs veh, WDSUB1 / Fold change vs veh, HSP90B1 /// MIR3652 / RFU, ADSS / Fold change vs veh, ADSS / RFU, GK / Fold change vs veh, GK / RFU, ZNF148 / Fold change vs veh, ZNF148 / RFU, TAF9 / Fold change vs veh, TAF9 / RFU, SLC1A5 / Fold change vs veh, SLC1A5 / RFU, SLMO2 / Fold change vs veh, SLMO2 / RFU, ABCC4 / Fold change vs veh, ABCC4 / RFU, LOC101060439 /// RAP1B / Fold change vs veh, LOC101060439 /// RAP1B / RFU, RFX7 / Fold change vs veh, RFX7 / RFU, GTPBP10 / Fold change vs veh, GTPBP10 / RFU, CNEP1R1 / Fold change vs veh, CNEP1R1 / RFU, BIVM-ERCC5 /// ERCC5 / Fold change vs veh, BIVM-ERCC5 /// ERCC5 / RFU, ILF3 / Fold change vs veh, ILF3 / RFU 11762660_at / Fold change /veh 11762660_at / RFU VCAN (11757783_s_at) / Fold change /veh VCAN (11757783_s_at) / RFU DDX43 (11728927_at) / Fold change /veh DDX43 (11728927_at) / RFU KRT8 (11758188_x_at) / Fold change /veh KRT8 (11758188_x_at) / RFU NKD1 (11759106_at) / Fold change /veh NKD1 (11759106_at) / RFU SRD5A1 (11742802_a_at) / Fold change /veh SRD5A1 (11742802_a_at) / RFU TPSAB1 /// TPSB2 (11721975_s_at) / Fold change /veh TPSAB1 /// TPSB2 (11721975_s_at) / RFU GSTM3 (11746129_a_at) / Fold change /veh GSTM3 (11746129_a_at) / RFU IL23R (11737362_x_at) / Fold change /veh IL23R (11737362_x_at) / RFU TMEM51 (11727254_a_at) / Fold change /veh TMEM51 (11727254_a_at) / RFU PIWIL2 (11732686_x_at) / Fold change /veh PIWIL2 (11732686_x_at) / RFU ORM1 (11744905_x_at) / Fold change /veh ORM1 (11744905_x_at) / RFU CCDC152 (11743942_at) / Fold change /veh CCDC152 (11743942_at) / RFU ECM1 (11717891_a_at) / Fold change /veh ECM1 (11717891_a_at) / RFU IL23R (11748794_a_at) / Fold change /veh IL23R (11748794_a_at) / RFU TNFAIP8L3 (11732012_x_at) / Fold change /veh TNFAIP8L3 (11732012_x_at) / RFU MBOAT4 (11741988_at) / Fold change /veh MBOAT4 (11741988_at) / RFU 11764193_at / Fold change /veh 11764193_at / RFU TMEM53 (11763286_at) / Fold change /veh TMEM53 (11763286_at) / RFU MAGEB2 (11727129_at) / Fold change /veh MAGEB2 (11727129_at) / RFU TMEM200A (11744735_a_at) / Fold change /veh TMEM200A (11744735_a_at) / RFU CCDC152 (11751479_a_at) / Fold change /veh CCDC152 (11751479_a_at) / RFU FAM211A (11726209_a_at) / Fold change /veh FAM211A (11726209_a_at) / RFU RGS16 (11746705_a_at) / Fold change /veh RGS16 (11746705_a_at) / RFU VCAN (11755009_s_at) / Fold change /veh VCAN (11755009_s_at) / RFU RHOB (11743442_s_at) / Fold change /veh RHOB (11743442_s_at) / RFU RGS16 (11720943_a_at) / Fold change /veh RGS16 (11720943_a_at) / RFU RGS16 (11720944_at) / Fold change /veh RGS16 (11720944_at) / RFU, VPS4B / Fold change vs veh, VPS4B / RFU, CREB1 / Fold change vs veh, CREB1 / RFU, DNAJC13 / Fold change vs veh, DNAJC13 / RFU, GNAQ / Fold change vs veh, GNAQ / RFU, CDK5R1 / Fold change vs veh, CDK5R1 / RFU, ZRANB3 / Fold change vs veh, ZRANB3 / RFU, CUL4A / Fold change vs veh, CUL4A / RFU, CCNY / Fold change vs veh, CCNY / RFU, UFL1 / Fold change vs veh, UFL1 / RFU, COG3 / Fold change vs veh, COG3 / RFU, DIAPH2 / Fold change vs veh, DIAPH2 / RFU, SKA2 / Fold change vs veh, SKA2 / RFU, AFF3 / Fold change vs veh, AFF3 / RFU, LMF1 / Fold change vs veh, LMF1 / RFU, IPO11 / Fold change vs veh, IPO11 / RFU, DFFB / Fold change vs veh, DFFB / RFU, FOXP1 / Fold change vs veh, FOXP1 / RFU, CARD8 / Fold change vs veh, CARD8 / RFU, STRN3 / Fold change vs veh, STRN3 / RFU, ADK / Fold change vs veh, ADK / RFU, RASSF2 / Fold change vs veh, RASSF2 / RFU, WIPF1 / Fold change vs veh, WIPF1 / RFU, LARP1B / Fold change vs veh, LARP1B / RFU, RASA1 / Fold change vs veh, RASA1 / RFU, RB1 / Fold change vs veh, RB1 / RFU, PPFIA1 / Fold change vs veh, PPFIA1 / RFU, MAT2A / Fold change vs veh, MAT2A / RFU, CCT5 / Fold change vs veh, CCT5 / RFU, WDR92 / Fold change vs veh, WDR92 / RFU, CUX1 / Fold change vs veh, CUX1 / RFU, TTC7A / Fold change vs veh, TTC7A / RFU, TMEM135 / Fold change vs veh, TMEM135 / RFU, DEPTOR / Fold change vs veh, DEPTOR / RFU, CPM / Fold change vs veh, CPM / RFU, DNAJB6 / Fold change vs veh, DNAJB6 / RFU, CACNA2D3 / Fold change vs veh, CACNA2D3 / RFU, DTX4 / Fold change vs veh, DTX4 / RFU, TFCP2 / Fold change vs veh, TFCP2 / RFU, GMCL1 /// GMCL1P1 / Fold change vs veh, GMCL1 /// GMCL1P1 / RFU, AEBP2 / Fold change vs veh, AEBP2 / RFU, SNHG1 /// SNORD22 /// SNORD25 /// SNORD26 /// SNORD27 /// SNORD28 /// SNORD29 /// SNORD31 / Fold change vs veh, SNHG1 /// SNORD22 /// SNORD25 /// SNORD26 /// SNORD27 /// SNORD28 /// SNORD29 /// SNORD31 / Fold change (Aza/veh), C12orf56 (ProbeSet 11735607_a_at) / Fold change (ACY-1035/veh), C12orf56 (ProbeSet 11735607_a_at) / Fold change (Aza/veh), FGFR1OP (ProbeSet 11751329_s_at) / Fold change (ACY-1035/veh), FGFR1OP (ProbeSet 11751329_s_at) / Fold change (Aza/veh), VPS36 (ProbeSet 11739960_a_at) / Fold change (ACY-1035/veh), VPS36 (ProbeSet 11739960_a_at) / RFU SYPL1 (11715823_x_at) / Fold change /veh SYPL1 (11715823_x_at) / RFU IGFBP7 (11715501_s_at) / Fold change /veh IGFBP7 (11715501_s_at) / RFU REEP3 (11722064_at) / Fold change /veh REEP3 (11722064_at) / RFU IGLL1 (11728026_x_at) / Fold change /veh IGLL1 (11728026_x_at): dose or concentration left out as unconfirmed
# Conditions: ProbeSet 11725100_s_at; LIST B
compound,measurement,value
Nc1ncn([C@@H]2O[C@H](CO)[C@@H](O)[C@H]2O)c(=O)n1 [azacitidine],"Fold change vs veh, ESF1",0.96
